Source: US7846959B2, “Raf modulators and methods of use” (Exelixis, Inc., priority 2004, dated 2010)
Read-outs that look alike come from different tables or passages of the source.

Tests used:
c-Raf = c-Raf (Homo sapiens, UniProt P04049); experiment: Luciferase-coupled chemiluminescence kinase assay (ATP consumption), c-Raf; format: biochemical
Method: (§1) Tyrosine kinase activity is determined by 1) measurement of kinase-dependent ATP consumption by in the presence of a generic substrate such as […], tyrosine (pEY), by luciferase/luciferin-mediated chemiluminescence or; 2) incorporation of radioactive phosphate derived from ^33P-ATP into a generic substrate which has been adsorbed onto the well surface of polystyrene microtiter plates. Phosphorylated substrate products are quantified by scintillation spectrometry.
(§2) Luciferase-Coupled Chemiluminescence Assay Protocol
(§3) Kinase activity is measured as the percent of ATP consumed following the kinase reaction using luciferase-luciferin-coupled chemiluminescence. Reactions were conducted in 384-well white, medium binding microtiter plates (Greiner). Kinase reactions were initiated by combining test compounds, ATP and kinase in a 20 uL volume. The reaction mixture was incubated at ambient temperature for 3 hrs. For c-Raf, B-Raf, and B-RafV599E, […] of the enzyme was pre-incubated with compound in 20 mM Tris pH 7.5, 10 mM MgCl2, 0.03% TX-100, and 1 mM DTT for 30 minutes at room temperature. Following the kinase reaction, a 20 μL aliquot of luciferase-luciferin mix was added and the chemiluminescence signal measured using a Victor^2 plate reader (Perkin Elmer). The luciferase-luciferin mix contained 50 mM HEPES, pH 7.8, 67 mM oxalic acid (pH 7.8), 5 (or 50) mM DTT, 0.4% Triton X-100, 0.25 mg/mL coenzyme A, 63 μM AMP, 28 μg/mL luciferin and 40,000 units/mL luciferase. Total ATP consumption was limited to 25-60% and the IC50 values correlate well with those determined by radiometric assays.

B-Raf = B-Raf (Homo sapiens, UniProt P15056); experiment: Luciferase-coupled chemiluminescence kinase assay (ATP consumption), B-Raf; format: biochemical
Method: as §1, §2, §3

[1] = read-out: cRaf-1 (inhibition indicated as IC50)
[2] = read-out: bRaf (inhibition indicated as IC50)

Chain of c-Raf (P04049 whole entry): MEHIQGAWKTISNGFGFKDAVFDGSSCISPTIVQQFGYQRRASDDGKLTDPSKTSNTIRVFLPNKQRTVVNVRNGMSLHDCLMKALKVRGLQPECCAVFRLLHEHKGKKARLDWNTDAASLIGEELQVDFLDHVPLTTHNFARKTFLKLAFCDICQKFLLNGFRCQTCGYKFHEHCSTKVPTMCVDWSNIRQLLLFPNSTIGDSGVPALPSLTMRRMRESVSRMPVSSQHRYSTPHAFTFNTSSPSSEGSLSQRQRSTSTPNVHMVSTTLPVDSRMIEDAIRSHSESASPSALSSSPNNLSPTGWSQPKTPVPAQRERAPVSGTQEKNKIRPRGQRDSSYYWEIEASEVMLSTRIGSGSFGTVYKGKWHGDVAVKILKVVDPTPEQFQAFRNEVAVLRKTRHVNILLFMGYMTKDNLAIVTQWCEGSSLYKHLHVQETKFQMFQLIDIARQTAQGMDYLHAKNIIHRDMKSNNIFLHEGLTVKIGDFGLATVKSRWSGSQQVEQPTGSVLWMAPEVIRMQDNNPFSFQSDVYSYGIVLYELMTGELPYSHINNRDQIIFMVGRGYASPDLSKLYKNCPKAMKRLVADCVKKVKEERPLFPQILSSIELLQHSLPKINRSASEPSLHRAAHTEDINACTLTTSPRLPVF
Chain of B-Raf (P15056 whole entry): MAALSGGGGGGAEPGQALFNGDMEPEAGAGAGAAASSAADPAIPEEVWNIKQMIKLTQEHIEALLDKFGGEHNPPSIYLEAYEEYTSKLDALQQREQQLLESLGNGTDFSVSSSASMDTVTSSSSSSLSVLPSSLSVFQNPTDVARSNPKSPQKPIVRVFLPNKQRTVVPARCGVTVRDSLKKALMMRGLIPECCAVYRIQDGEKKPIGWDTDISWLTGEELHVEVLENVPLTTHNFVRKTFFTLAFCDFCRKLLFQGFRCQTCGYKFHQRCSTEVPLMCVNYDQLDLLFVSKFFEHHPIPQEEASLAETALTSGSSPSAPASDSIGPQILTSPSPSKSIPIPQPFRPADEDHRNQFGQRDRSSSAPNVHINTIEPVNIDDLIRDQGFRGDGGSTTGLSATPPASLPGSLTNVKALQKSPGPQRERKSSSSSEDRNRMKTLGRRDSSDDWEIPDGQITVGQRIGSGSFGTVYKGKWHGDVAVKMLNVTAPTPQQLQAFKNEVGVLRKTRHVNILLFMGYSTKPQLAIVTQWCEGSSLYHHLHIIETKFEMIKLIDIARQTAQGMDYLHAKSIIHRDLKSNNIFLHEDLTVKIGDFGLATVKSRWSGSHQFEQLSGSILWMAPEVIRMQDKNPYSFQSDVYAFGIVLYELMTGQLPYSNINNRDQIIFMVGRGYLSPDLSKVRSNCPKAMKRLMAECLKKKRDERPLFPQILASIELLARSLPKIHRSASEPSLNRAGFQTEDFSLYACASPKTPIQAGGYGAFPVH

SMILES	IC50 (c-Raf; read-out: cRaf-1 IC50) [nM]	IC50 (B-Raf; read-out: bRaf IC50) [nM]	IC50 (c-Raf; [1]) [nM]	IC50 (B-Raf; [2]) [nM]
CN(C)CCOc1cccc(N2C(=O)c3ccccc3C2(O)c2ccc3c(c2)NC(=O)CO3)c1 (stereo not drawn) [Entry 89, 6-[2-(3-{[2-(dimethylamino)ethyl]oxy}phenyl)-1-hydroxy-3-oxo-2,3-dihydro-1H-isoindol-1-yl]-2H-1,4-benzoxazin-3(4H)-one]	≥ 10000	≥ 10000		
O=C1COc2ccc(C3(O)c4ccccc4C(=O)N3c3cccc(Br)c3)cc2N1 (stereo not drawn) [Entry 41, 6-[2-(3-bromophenyl)-1-hydroxy-3-oxo-2,3-dihydro-1H-isoindol-1-yl]-2H-1,4-benzoxazin-3(4H)-one]	< 100	100 to 1000		
C=Cc1cccc(NC(=O)c2ccccc2C(=O)c2ccc3nc(NC(=O)OC)[nH]c3c2)c1F [Entry 418, methyl {6-[(2-{[(3-ethenyl-2-fluorophenyl)amino]carbonyl}phenyl)carbonyl]-1H-benzimidazol-2-yl}carbamate]			< 100	< 100
O=C(Nc1nc2cc(C3(O)c4ccccc4C(=O)N3Cc3ccccc3)ccc2[nH]1)N1CCCCC1 (stereo not drawn) [Entry 213, N-{5-[1-hydroxy-3-oxo-2-(phenylmethyl)-2,3-dihydro-1H-isoindol-1-yl]-1H-benzimidazol-2-yl}piperidine-1-carboxamide]	100 to 1000	1000 to 10000		
CN(C)CCOC(=O)Nc1nc2ccc(C3(O)c4ccccc4C(=O)N3c3cccc(Cl)c3F)cc2[nH]1 (stereo not drawn) [Entry 291, 2-(dimethylamino)ethyl {6-[2-(3-chloro-2-fluorophenyl)-1-hydroxy-3-oxo-2,3-dihydro-1H-isoindol-1-yl]-1H-benzimidazol-2-yl}carbamate]			< 100	< 100
C#Cc1cccc(N2C(=O)c3ccccc3C2(O)c2ccc3c(c2)NC(=O)CO3)c1 (stereo not drawn) [Entry 77, 6-[2-(3-ethynylphenyl)-1-hydroxy-3-oxo-2,3-dihydro-1H-isoindol-1-yl]-2H-1,4-benzoxazin-3(4H)-one]	100 to 1000	100 to 1000		
O=C(Nc1nc2cc(C3(O)c4ccccc4C(=O)N3c3cccc(Cl)c3F)ccc2[nH]1)OCCN1CCCCC1 (stereo not drawn) [Entry 293, 2-piperidin-1-ylethyl {5-[2-(3-chloro-2-fluorophenyl)-1-hydroxy-3-oxo-2,3-dihydro-1H-isoindol-1-yl]-1H-benzimidazol-2-yl}carbamate]			< 100	< 100
Cc1ccc(Cl)cc1N1C(=O)c2ccccc2C1(O)c1ccc2nc(Nc3cnccn3)[nH]c2c1 (stereo not drawn) [Entry 389, 2-(5-chloro-2-methylphenyl)-3-hydroxy-3-[2-(pyrazin-2-ylamino)-1H-benzimidazol-6-yl]-2,3-dihydro-1H-isoindol-1-one]			< 100	< 100
COC(=O)Nc1nc2cc(C3c4ccccc4C(=O)N3c3cccc(Br)c3)ccc2[nH]1 (stereo not drawn) [Entry 281, methyl {5-[2-(3-bromophenyl)-3-oxo-2,3-dihydro-1H-isoindol-1-yl]-1H-benzimidazol-2-yl}carbamate]			< 100	< 100
CC(C)(C)n1c(N)nc2cc(C3(O)c4ccccc4C(=O)N3Cc3ccccc3)ccc21 (stereo not drawn) [Entry 100, 3-[2-amino-1-(1,1-dimethylethyl)-1H-benzimidazol-5-yl]-3-hydroxy-2-(phenylmethyl)-2,3-dihydro-1H-isoindol-1-one]	≥ 10000	≥ 10000		
O=C1COc2ccc(C3(O)c4ccccc4C(=O)N3c3cc(F)cc(I)c3)cc2N1 (stereo not drawn) [Entry 66, 6-[2-(3-fluoro-5-iodophenyl)-1-hydroxy-3-oxo-2,3-dihydro-1H-isoindol-1-yl]-2H-1,4-benzoxazin-3(4H)-one]	1000 to 10000	1000 to 10000		
COC(=O)Nc1nc2cc(C3(O)c4ccccc4C(=O)N3Cc3ccco3)ccc2[nH]1 (stereo not drawn) [Entry 205, methyl {5-[2-(furan-2-ylmethyl)-1-hydroxy-3-oxo-2,3-dihydro-1H-isoindol-1-yl]-1H-benzimidazol-2-yl}carbamate]	< 100	< 100		
COC(=O)Nc1nc2cc(C3(O)c4ccccc4C(=O)N3C(C)c3sccc3Cl)ccc2[nH]1 (stereo not drawn) [Entry 241, methyl (5-{2-[1-(3-chloro-2-thienyl)ethyl]-1-hydroxy-3-oxo-2,3-dihydro-1H-isoindol-1-yl}-1H-benzimidazol-2-yl)carbamate]	1000 to 10000	1000 to 10000		
O=C(Nc1nc2ccc(C3(O)c4ccccc4C(=O)N3c3ccc(F)cc3)cc2[nH]1)OCCCN1CCCCC1 (stereo not drawn) [Entry 279, 3-piperidin-1-ylpropyl {6-[2-(4-fluorophenyl)-1-hydroxy-3-oxo-2,3-dihydro-1H-isoindol-1-yl]-1H-benzimidazol-2-yl}carbamate]			< 100	100 to 1000
O=C(Nc1nc2ccc(C3(O)c4ccccc4C(=O)N3c3cccc(Cl)c3F)cc2[nH]1)OCCN1CCCC1=O (stereo not drawn) [Entry 323, 2-(2-oxopyrrolidin-1-yl)ethyl {6-[2-(3-chloro-2-fluorophenyl)-1-hydroxy-3-oxo-2,3-dihydro-1H-isoindol-1-yl]-1H-benzimidazol-2-yl}carbamate]			< 100	< 100
COC(=O)C(=O)Nc1nc2ccc(C3(O)c4ccccc4C(=O)N3c3cccc(Cl)c3F)cc2[nH]1 (stereo not drawn) [Entry 318, methyl ({6-[2-(3-chloro-2-fluorophenyl)-1-hydroxy-3-oxo-2,3-dihydro-1H-isoindol-1-yl]-1H-benzimidazol-2-yl}amino)(oxo)acetate]			1000 to 10000	1000 to 10000
CC(C)(CN1CCCCC1)C(=O)Nc1nc2ccc(C3(O)c4ccccc4C(=O)N3Cc3ccccc3)cc2[nH]1 (stereo not drawn) [Entry 286, N-{6-[1-hydroxy-3-oxo-2-(phenylmethyl)-2,3-dihydro-1H-isoindol-1-yl]-1H-benzimidazol-2-yl}-2,2-dimethyl-3-piperidin-1-ylpropanamide]			1000 to 10000	1000 to 10000

Other lines, results leading:

IC50 (c-Raf; read-out: cRaf-1 IC50) [nM]	IC50 (B-Raf; read-out: bRaf IC50) [nM]	IC50 (c-Raf; [1]) [nM]	IC50 (B-Raf; [2]) [nM]	SMILES
< 100	100 to 1000			COC(=O)Nc1nc2cc(C3(O)c4ccccc4C(=O)N3Cc3ccccc3Cl)ccc2[nH]1 (stereo not drawn) [Entry 129, methyl (5-{2-[(2-chlorophenyl)methyl]-1-hydroxy-3-oxo-2,3-dihydro-1H-isoindol-1-yl}-1H-benzimidazol-2-yl)carbamate]
		< 100	< 100	COC(=O)Nc1nc2cc(C3(O)c4ccccc4C(=O)N3c3cc(Cl)cc(F)c3F)ccc2[nH]1 (stereo not drawn) [Entry 299, methyl {5-[2-(5-chloro-2,3-difluorophenyl)-1-hydroxy-3-oxo-2,3-dihydro-1H-isoindol-1-yl]-1H-benzimidazol-2-yl}carbamate]
< 100	< 100			CCc1cc(N2C(=O)c3ccccc3C2(O)c2ccc3[nH]c(NC(=O)OC)nc3c2)ccc1F (stereo not drawn) [Entry 238, methyl {5-[2-(3-ethyl-4-fluorophenyl)-1-hydroxy-3-oxo-2,3-dihydro-1H-isoindol-1-yl]-1H-benzimidazol-2-yl}carbamate]
< 100	< 100			COC(=O)Nc1nc2cc(C3(O)c4ccccc4C(=O)N3c3ccc(F)c(Cl)c3F)ccc2[nH]1 (stereo not drawn) [Entry 252, methyl {5-[2-(3-chloro-2,4-difluorophenyl)-1-hydroxy-3-oxo-2,3-dihydro-1H-isoindol-1-yl]-1H-benzimidazol-2-yl}carbamate]
		< 100	< 100	COC(=O)Nc1nc2cc(C3(O)c4ccccc4C(=O)N3c3cccc(I)c3F)ccc2[nH]1 (stereo not drawn) [Entry 362, methyl {5-[2-(2-fluoro-3-iodophenyl)-1-hydroxy-3-oxo-2,3-dihydro-1H-isoindol-1-yl]-1H-benzimidazol-2-yl}carbamate]
< 100	< 100			COC(=O)Nc1nc2cc(C3(O)c4ccccc4C(=O)N3Cc3ccccc3F)ccc2[nH]1 (stereo not drawn) [Entry 123, methyl (5-{2-[(2-fluorophenyl)methyl]-1-hydroxy-3-oxo-2,3-dihydro-1H-isoindol-1-yl}-1H-benzimidazol-2-yl)carbamate]
< 100	< 100			COC(=O)Nc1nc2cc(C3(O)c4ccccc4C(=O)N3c3cccc(C)c3)ccc2[nH]1 (stereo not drawn) [Entry 115, methyl {5-[1-hydroxy-2-(3-methylphenyl)-3-oxo-2,3-dihydro-1H-isoindol-1-yl]-1H-benzimidazol-2-yl}carbamate]
		< 100	< 100	C#Cc1cccc(N2C(=O)c3ccccc3C2(O)c2ccc3[nH]c(NC(=O)OC)nc3c2)c1F (stereo not drawn) [Entry 282, methyl {5-[2-(3-ethynyl-2-fluorophenyl)-1-hydroxy-3-oxo-2,3-dihydro-1H-isoindol-1-yl]-1H-benzimidazol-2-yl}carbamate]
< 100	< 100			COC(=O)Nc1nc2cc(C3(O)c4ccccc4C(=O)N3c3cccc(F)c3)ccc2[nH]1 (stereo not drawn) [Entry 136, methyl {5-[2-(3-fluorophenyl)-1-hydroxy-3-oxo-2,3-dihydro-1H-isoindol-1-yl]-1H-benzimidazol-2-yl}carbamate]
< 100	< 100			COC(=O)Nc1nc2cc(C3(O)c4ccccc4C(=O)N3c3ccc(F)c(C)c3)ccc2[nH]1 (stereo not drawn) [Entry 227, methyl {5-[2-(4-fluoro-3-methylphenyl)-1-hydroxy-3-oxo-2,3-dihydro-1H-isoindol-1-yl]-1H-benzimidazol-2-yl}carbamate]
